Several values for one entry are separate records, joined by “and”; a condition that tells them apart may be missing. Identical values can stand only once. Like-named read-outs stand apart in the source and are kept apart here.
Legend:
Assay type in all cases: cell-based
[1] = target: 318 nonolfactory human GPCRs (Homo sapiens, UniProt Q15743); conditions: GPR68; C21 5 µM
[2] = target: T1, 318 nonolfactory human GPCRs (Homo sapiens, UniProt Q6U736); conditions: OPN5; C21 5 µM
T1 construct: expressed in transfected cells; host or cells: HTLA cells, transient

[3] = target: 318 nonolfactory human GPCRs (Homo sapiens, UniProt P21918); conditions: DRD5; C21 5 µM
[4] = target: T2, 318 nonolfactory human GPCRs (Homo sapiens, UniProt O15218); conditions: GPR182; C21 5 µM
T2 construct: expressed in transfected cells; host or cells: HTLA cells, transient
T2 sequence (O15218 whole entry): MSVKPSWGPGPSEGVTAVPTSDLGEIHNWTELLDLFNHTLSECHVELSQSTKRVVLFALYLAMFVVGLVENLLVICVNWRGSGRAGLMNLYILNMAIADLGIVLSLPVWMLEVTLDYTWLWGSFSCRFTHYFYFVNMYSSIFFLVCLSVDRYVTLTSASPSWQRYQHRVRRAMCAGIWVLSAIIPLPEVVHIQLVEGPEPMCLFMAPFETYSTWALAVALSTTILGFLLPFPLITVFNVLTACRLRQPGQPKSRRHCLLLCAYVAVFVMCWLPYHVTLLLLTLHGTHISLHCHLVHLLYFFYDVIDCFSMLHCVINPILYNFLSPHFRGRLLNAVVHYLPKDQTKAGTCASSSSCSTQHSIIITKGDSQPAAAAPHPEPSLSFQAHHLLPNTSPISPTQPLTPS

[5] = target: 318 nonolfactory human GPCRs (Homo sapiens, UniProt P41595); conditions: HTR2B; C21 5 µM
[6] = target: T3, 318 nonolfactory human GPCRs (Homo sapiens, UniProt P21452); conditions: TACR2; C21 5 µM
T3 construct: expressed in transfected cells; host or cells: HTLA cells, transient
T3 sequence (P21452 whole entry): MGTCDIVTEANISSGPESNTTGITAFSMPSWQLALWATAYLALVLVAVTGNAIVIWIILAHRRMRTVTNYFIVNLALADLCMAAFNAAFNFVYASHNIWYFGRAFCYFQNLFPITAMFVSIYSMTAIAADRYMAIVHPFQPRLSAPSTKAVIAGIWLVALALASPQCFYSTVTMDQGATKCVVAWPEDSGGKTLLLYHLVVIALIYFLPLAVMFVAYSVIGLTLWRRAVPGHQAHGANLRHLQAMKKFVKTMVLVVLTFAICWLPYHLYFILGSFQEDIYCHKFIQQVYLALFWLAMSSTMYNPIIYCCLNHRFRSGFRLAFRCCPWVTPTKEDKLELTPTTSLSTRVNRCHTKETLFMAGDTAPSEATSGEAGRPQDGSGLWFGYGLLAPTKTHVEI

[7] = target: T4, 318 nonolfactory human GPCRs (Homo sapiens, UniProt P25116); conditions: F2R; C21 5 µM
T4 construct: expressed in transfected cells; host or cells: HTLA cells, transient

[8] = target: 318 nonolfactory human GPCRs (Homo sapiens, UniProt P48546); conditions: GIPR; C21 5 µM
[9] = target: T5, 318 nonolfactory human GPCRs (Homo sapiens, UniProt P24530); conditions: EDNRB; C21 5 µM
T5 construct: expressed in transfected cells; host or cells: HTLA cells, transient
T5 sequence (P24530 27-442): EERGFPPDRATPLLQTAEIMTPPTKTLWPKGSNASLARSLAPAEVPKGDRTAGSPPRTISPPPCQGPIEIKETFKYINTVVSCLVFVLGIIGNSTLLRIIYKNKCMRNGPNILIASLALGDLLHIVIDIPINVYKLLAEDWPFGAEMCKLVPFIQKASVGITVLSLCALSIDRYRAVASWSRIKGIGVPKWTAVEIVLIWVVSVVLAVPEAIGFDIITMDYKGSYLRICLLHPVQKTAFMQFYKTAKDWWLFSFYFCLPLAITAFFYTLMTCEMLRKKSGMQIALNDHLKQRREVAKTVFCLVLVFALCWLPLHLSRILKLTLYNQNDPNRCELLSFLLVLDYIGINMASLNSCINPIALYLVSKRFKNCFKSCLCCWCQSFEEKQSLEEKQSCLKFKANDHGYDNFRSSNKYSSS

[10] = target: T6, 318 nonolfactory human GPCRs (Homo sapiens, UniProt Q15760); conditions: GPR19; C21 5 µM
T6 construct: expressed in transfected cells; host or cells: HTLA cells, transient

[11] = target: T7, 318 nonolfactory human GPCRs (Homo sapiens, UniProt P41587); conditions: VIPR2; C21 5 µM
T7 construct: expressed in transfected cells; host or cells: HTLA cells, transient
T7 sequence (P41587 24-438): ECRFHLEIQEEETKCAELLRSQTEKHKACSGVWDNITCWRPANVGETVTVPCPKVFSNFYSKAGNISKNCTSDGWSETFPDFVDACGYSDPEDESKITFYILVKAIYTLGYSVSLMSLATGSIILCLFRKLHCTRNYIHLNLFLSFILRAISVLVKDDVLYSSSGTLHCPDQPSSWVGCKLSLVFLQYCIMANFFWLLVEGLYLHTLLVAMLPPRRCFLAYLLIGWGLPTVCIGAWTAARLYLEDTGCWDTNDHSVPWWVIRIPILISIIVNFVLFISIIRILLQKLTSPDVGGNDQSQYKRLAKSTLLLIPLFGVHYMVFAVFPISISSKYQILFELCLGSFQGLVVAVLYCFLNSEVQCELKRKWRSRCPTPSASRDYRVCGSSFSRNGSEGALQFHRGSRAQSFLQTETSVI

[12] = target: T8, 318 nonolfactory human GPCRs (Homo sapiens, UniProt Q9BXC1); conditions: GPR174; C21 5 µM
T8 construct: expressed in transfected cells; host or cells: HTLA cells, transient

[13] = target: 318 nonolfactory human GPCRs (Homo sapiens, UniProt P32239); conditions: CCKBR; C21 5 µM
Sequence of 318 nonolfactory human GPCRs (Homo sapiens, UniProt P32239) (P32239 whole entry): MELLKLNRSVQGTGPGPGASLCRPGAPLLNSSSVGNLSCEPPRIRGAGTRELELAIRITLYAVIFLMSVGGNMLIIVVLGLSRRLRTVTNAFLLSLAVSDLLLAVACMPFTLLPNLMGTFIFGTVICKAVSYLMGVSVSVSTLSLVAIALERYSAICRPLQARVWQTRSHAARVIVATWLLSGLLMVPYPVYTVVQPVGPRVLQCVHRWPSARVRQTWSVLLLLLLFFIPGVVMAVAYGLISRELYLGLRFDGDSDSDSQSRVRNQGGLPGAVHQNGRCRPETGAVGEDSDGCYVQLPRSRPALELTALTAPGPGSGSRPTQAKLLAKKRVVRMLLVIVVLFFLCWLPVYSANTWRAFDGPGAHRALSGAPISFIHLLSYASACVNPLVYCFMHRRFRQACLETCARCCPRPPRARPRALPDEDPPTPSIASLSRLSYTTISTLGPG

[14] = target: T9, 318 nonolfactory human GPCRs (Homo sapiens, UniProt Q8IWK6); conditions: GPR125; C21 5 µM
T9 construct: expressed in transfected cells; host or cells: HTLA cells, transient

[15] = target: T10, 318 nonolfactory human GPCRs (Homo sapiens, UniProt P33032); conditions: MC5R; C21 5 µM
T10 construct: expressed in transfected cells; host or cells: HTLA cells, transient
T10 sequence (P33032 whole entry): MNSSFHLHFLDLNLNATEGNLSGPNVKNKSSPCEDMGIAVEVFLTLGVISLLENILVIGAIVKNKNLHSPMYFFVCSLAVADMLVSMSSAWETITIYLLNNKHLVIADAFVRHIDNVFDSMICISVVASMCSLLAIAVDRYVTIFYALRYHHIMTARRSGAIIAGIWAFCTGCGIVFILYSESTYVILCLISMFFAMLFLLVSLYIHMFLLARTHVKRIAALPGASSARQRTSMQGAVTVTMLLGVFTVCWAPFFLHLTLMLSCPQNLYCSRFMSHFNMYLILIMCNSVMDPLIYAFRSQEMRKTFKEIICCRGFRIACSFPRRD

[16] = target: T11, 318 nonolfactory human GPCRs (Homo sapiens, UniProt P46663); conditions: BDKBR1; C21 5 µM
T11 construct: expressed in transfected cells; host or cells: HTLA cells, transient

[17] = target: T12, 318 nonolfactory human GPCRs (Homo sapiens, UniProt Q86Y34); conditions: GPR97; C21 5 µM
T12 construct: expressed in transfected cells; host or cells: HTLA cells, transient

[18] = target: T13, 318 nonolfactory human GPCRs (Homo sapiens, UniProt Q92847); conditions: GHSR; C21 5 µM
T13 construct: expressed in transfected cells; host or cells: HTLA cells, transient

[19] = target: T14, 318 nonolfactory human GPCRs (Homo sapiens, UniProt Q8TDV2); conditions: GPR148; C21 5 µM
T14 construct: expressed in transfected cells; host or cells: HTLA cells, transient

[20] = target: T15, 318 nonolfactory human GPCRs (Homo sapiens, UniProt P08908); conditions: HTR1A; C21 5 µM
T15 construct: expressed in transfected cells; host or cells: HTLA cells, transient

[21] = target: T16, 318 nonolfactory human GPCRs (Homo sapiens, UniProt P32302); conditions: CXCR5; C21 5 µM
T16 construct: expressed in transfected cells; host or cells: HTLA cells, transient

[22] = target: T17, 318 nonolfactory human GPCRs (Homo sapiens, UniProt P41594); conditions: GRM5; C21 5 µM
T17 construct: expressed in transfected cells; host or cells: HTLA cells, transient

[23] = target: T18, 318 nonolfactory human GPCRs (Homo sapiens, UniProt Q9P1P5); conditions: TAAR2; C21 5 µM
T18 construct: expressed in transfected cells; host or cells: HTLA cells, transient
T18 sequence (Q9P1P5 whole entry): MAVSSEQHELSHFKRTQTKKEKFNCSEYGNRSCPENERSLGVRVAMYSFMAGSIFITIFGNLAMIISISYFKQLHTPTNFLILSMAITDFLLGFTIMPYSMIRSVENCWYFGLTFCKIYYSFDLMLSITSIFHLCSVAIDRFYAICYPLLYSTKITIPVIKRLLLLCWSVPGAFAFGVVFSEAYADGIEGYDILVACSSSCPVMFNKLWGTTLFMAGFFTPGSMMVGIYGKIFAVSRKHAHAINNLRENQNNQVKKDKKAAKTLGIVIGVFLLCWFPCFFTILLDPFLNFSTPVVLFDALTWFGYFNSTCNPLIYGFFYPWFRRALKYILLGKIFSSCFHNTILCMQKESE

[24] = target: 318 nonolfactory human GPCRs (Homo sapiens, UniProt P25103); conditions: TACR1; C21 5 µM
Sequence of 318 nonolfactory human GPCRs (Homo sapiens, UniProt P25103) (P25103 whole entry): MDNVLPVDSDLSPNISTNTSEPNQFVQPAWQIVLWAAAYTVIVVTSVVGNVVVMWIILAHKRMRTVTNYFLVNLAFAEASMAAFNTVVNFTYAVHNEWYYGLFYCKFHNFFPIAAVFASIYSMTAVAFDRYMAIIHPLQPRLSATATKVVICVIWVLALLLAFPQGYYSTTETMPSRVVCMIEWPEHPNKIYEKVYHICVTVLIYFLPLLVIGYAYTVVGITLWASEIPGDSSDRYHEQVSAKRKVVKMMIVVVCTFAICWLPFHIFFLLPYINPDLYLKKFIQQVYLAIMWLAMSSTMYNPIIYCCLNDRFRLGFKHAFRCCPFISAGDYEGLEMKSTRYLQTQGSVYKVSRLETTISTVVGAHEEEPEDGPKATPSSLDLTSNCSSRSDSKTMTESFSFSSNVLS

[25] = target: 318 nonolfactory human GPCRs (Homo sapiens, UniProt P25021); conditions: HRH2; C21 5 µM
[26] = target: T19, 318 nonolfactory human GPCRs (Homo sapiens, UniProt Q9Y5Y3); conditions: GPR45; C21 5 µM
T19 construct: expressed in transfected cells; host or cells: HTLA cells, transient

[27] = target: T20, 318 nonolfactory human GPCRs (Homo sapiens, UniProt P30559); conditions: OXTR; C21 5 µM
T20 construct: expressed in transfected cells; host or cells: HTLA cells, transient
T20 sequence (P30559 whole entry): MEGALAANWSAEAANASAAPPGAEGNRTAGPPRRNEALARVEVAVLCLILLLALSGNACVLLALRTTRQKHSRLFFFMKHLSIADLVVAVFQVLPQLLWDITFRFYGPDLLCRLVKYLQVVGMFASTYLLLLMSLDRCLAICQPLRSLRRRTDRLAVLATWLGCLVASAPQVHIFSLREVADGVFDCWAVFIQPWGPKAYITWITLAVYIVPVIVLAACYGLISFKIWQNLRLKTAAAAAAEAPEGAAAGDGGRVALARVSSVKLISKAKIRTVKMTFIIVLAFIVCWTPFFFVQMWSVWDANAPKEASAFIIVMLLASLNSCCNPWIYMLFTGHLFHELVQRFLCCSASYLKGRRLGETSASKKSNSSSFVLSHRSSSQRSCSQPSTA

[28] = target: 318 nonolfactory human GPCRs (Homo sapiens, UniProt P30872); conditions: SSTR1; C21 5 µM
Sequence of 318 nonolfactory human GPCRs (Homo sapiens, UniProt P30872) (P30872 whole entry): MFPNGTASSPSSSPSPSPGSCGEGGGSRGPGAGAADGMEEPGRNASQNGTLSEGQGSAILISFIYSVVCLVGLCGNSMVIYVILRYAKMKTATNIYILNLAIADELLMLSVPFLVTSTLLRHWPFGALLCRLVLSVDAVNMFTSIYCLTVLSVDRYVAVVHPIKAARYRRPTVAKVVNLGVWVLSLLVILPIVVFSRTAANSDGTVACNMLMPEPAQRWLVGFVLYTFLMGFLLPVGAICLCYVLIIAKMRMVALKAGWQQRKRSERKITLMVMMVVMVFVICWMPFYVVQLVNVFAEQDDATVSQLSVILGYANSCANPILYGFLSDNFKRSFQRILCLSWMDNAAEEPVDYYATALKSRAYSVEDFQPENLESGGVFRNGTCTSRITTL

[29] = test system: 318 nonolfactory human GPCRs; conditions: for FOLD OVER BASAL: C21 5 µM
[30] = target: T21, 318 nonolfactory human GPCRs (Homo sapiens, UniProt P25105); conditions: PTAFR; C21 5 µM
T21 construct: expressed in transfected cells; host or cells: HTLA cells, transient
T21 sequence (P25105 whole entry): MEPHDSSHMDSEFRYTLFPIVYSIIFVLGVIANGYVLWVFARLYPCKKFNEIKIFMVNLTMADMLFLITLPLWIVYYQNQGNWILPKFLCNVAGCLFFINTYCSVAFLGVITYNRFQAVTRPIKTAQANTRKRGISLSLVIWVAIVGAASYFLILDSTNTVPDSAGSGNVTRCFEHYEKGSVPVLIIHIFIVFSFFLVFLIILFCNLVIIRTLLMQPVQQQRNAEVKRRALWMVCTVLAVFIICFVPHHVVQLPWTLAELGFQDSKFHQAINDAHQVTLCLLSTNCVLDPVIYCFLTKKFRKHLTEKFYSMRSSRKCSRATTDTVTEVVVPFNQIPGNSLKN

[31] = target: T22, 318 nonolfactory human GPCRs (Homo sapiens, UniProt Q99679); conditions: GPR21; C21 5 µM
T22 construct: expressed in transfected cells; host or cells: HTLA cells, transient
T22 sequence (Q99679 whole entry): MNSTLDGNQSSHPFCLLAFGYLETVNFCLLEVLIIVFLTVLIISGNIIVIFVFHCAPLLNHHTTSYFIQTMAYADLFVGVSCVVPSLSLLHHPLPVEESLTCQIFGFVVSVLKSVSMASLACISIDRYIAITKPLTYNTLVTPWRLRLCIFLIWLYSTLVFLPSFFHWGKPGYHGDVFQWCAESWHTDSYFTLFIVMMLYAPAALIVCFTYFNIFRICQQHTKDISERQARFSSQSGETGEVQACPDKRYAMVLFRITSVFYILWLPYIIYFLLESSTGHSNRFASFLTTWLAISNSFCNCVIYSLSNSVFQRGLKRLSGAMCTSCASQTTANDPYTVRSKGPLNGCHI

[32] = target: T23, 318 nonolfactory human GPCRs (Homo sapiens, UniProt P34995); conditions: PTGER1; C21 5 µM
T23 construct: expressed in transfected cells; host or cells: HTLA cells, transient

[33] = target: T24, 318 nonolfactory human GPCRs (Homo sapiens, UniProt P49238); conditions: CX3CR1; C21 5 µM
T24 construct: expressed in transfected cells; host or cells: HTLA cells, transient

SMILES: c1ccc2c(c1)N=C(N1CCNCC1)c1ccccc1N2 [C21, 11-(1-piperazinyl)-5H-dibenzo[b,e][1,4]diazepine]
- FOLD OVER BASAL [1]: 0.6 fold and 1 fold and 0.8 fold
- FOLD OVER BASAL [2]: 1.2 fold and 1.3 fold and 0.9 fold
- FOLD OVER BASAL [3]: 0.8 fold and 0.7 fold
- FOLD OVER BASAL [4]: 0.9 fold and 1 fold and 1.1 fold and 0.7 fold
- FOLD OVER BASAL [5]: 0.3 fold and 0.2 fold
- FOLD OVER BASAL [6]: 0.7 fold and 0.9 fold and 0.6 fold and 1.1 fold
- FOLD OVER BASAL [7]: 0.8 fold and 0.9 fold and 0.6 fold
- FOLD OVER BASAL [8]: 0.3 fold and 0.4 fold
- FOLD OVER BASAL [9]: 0.8 fold and 1 fold and 0.5 fold and 0.7 fold
- FOLD OVER BASAL [10]: 0.8 fold and 0.9 fold and 1.1 fold
- FOLD OVER BASAL [11]: 0.6 fold and 0.8 fold and 0.9 fold
- FOLD OVER BASAL [12]: 0.6 fold and 0.9 fold and 0.5 fold
- FOLD OVER BASAL [13]: 1.8 fold and 2.1 fold and 1.9 fold and 1.2 fold
- FOLD OVER BASAL [14]: 0.5 fold and 0.8 fold and 1 fold and 0.9 fold
- FOLD OVER BASAL [15]: 1.2 fold and 0.9 fold and 1.3 fold and 1 fold
- FOLD OVER BASAL [16]: 0.6 fold and 0.3 fold
- FOLD OVER BASAL [17]: 0.6 fold and 0.5 fold and 0.7 fold
- FOLD OVER BASAL [18]: 0.9 fold and 1 fold
- FOLD OVER BASAL [19]: 0.9 fold and 0.6 fold and 0.5 fold and 1 fold
- FOLD OVER BASAL [20]: 0.5 fold and 0.4 fold and 0.3 fold
- FOLD OVER BASAL [21]: 0.9 fold and 1.3 fold and 1.2 fold
- FOLD OVER BASAL [22]: 1.1 fold and 0.7 fold
- FOLD OVER BASAL [23]: 1.1 fold and 1 fold and 0.7 fold and 0.9 fold
- FOLD OVER BASAL [24]: 1.1 fold and 0.8 fold and 0.9 fold
- FOLD OVER BASAL [25]: 1.7 fold and 1.4 fold and 1.6 fold and 1.3 fold
- FOLD OVER BASAL [26]: 0.8 fold and 0.6 fold and 1 fold
- FOLD OVER BASAL [27]: 0.8 fold and 0.5 fold and 1 fold
- FOLD OVER BASAL [28]: 1 fold and 0.6 fold and 0.8 fold
- FOLD OVER BASAL ([29]; CALCRb): 0.8 fold and 0.6 fold and 0.5 fold
- FOLD OVER BASAL ([29]; GAL2): 1.2 fold and 0.9 fold and 1.3 fold
- FOLD OVER BASAL ([29]; GAL3): 1.1 fold and 0.7 fold and 0.9 fold
- FOLD OVER BASAL ([29]; HCTR2): 1.1 fold and 0.8 fold and 0.6 fold
- FOLD OVER BASAL ([29]; PK1): 1.3 fold and 1.4 fold and 0.8 fold and 1.5 fold
- FOLD OVER BASAL ([29]; PRRP): 1 fold and 0.9 fold and 0.6 fold
- agonist activity at GPCRome (fold of basal) ([29]; single concentration 5 μM, PRESTO-Tango, quadruplicate): agonist activity only at M4-, D2-, and H4-histamine receptors
- FOLD OVER BASAL [30]: 0.8 fold and 0.7 fold and 1.1 fold
- FOLD OVER BASAL [31]: 0.9 fold and 0.8 fold and 1.2 fold and 0.7 fold
- FOLD OVER BASAL [32]: 0.9 fold and 1 fold and 1.6 fold and 0.8 fold
- FOLD OVER BASAL [33]: 0.6 fold and 1.1 fold and 0.8 fold

— publication PMC6407913, “DREADD Agonist 21 Is an Effective Agonist for Muscarinic-Based DREADDs in Vitro and in Vivo” (ACS Pharmacology & Translational Science, 2018)
